# According to paper PMC10399481, “Discovery and biological evaluation of novel CARM1/HDAC2 dual-targeting inhibitors with anti-prostate cancer agents” (Journal of Enzyme Inhibition and Medicinal Chemistry, 2023):
# Entries after “also recorded” stand apart in the source; their conditions may differ. Read-outs that look alike come from different tables or passages of the source.
# Experiments:
# CARM1 = target: T1, CARM1 (Homo sapiens, UniProt Q86X55); test: In vitro CARM1 inhibition assay (3H-SAM, Flashplate); assay type: biochemical; settings: 30 min preincubation, pH 7.5
# T1 construct: purchased Abcam (Cambridge, MA, USA)
# T1 sequence (Q86X55 1-608): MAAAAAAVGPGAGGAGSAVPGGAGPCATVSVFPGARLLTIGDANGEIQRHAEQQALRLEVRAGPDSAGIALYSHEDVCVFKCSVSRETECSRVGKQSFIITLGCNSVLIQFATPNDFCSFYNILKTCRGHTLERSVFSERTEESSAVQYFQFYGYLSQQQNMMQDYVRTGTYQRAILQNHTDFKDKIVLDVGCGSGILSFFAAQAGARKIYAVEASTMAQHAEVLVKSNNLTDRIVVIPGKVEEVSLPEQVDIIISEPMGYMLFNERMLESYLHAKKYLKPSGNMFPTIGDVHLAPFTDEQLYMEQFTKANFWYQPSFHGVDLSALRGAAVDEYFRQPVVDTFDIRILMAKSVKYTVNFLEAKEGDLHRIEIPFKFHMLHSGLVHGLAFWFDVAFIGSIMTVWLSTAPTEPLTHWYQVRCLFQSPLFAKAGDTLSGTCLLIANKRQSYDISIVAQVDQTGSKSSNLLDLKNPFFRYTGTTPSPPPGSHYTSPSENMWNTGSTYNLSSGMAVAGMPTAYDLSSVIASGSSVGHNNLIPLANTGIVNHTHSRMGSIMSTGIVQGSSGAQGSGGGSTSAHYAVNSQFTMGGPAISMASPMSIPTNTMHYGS
# Experimental: (§1) Hit compounds were purchased from WuXi AppTec.
# In vitro CARM1 inhibition assays were conducted as previously described. Before the reaction began, CARM1 was preincubated with compounds for 30 min at room temperature. […] Assay was performed at the condition of pH 7.5. The assay was quenched through the addition of 300 µM unlabelled SAM. The quantity of ^3H-labeled peptide produced was measured by Flashplate on a Topcount reader.
# HDAC2 = target: T2, HDAC2 (Homo sapiens, UniProt Q92769); test: In vitro HDAC2 inhibition assay (Boc-Lys(acetyl)-AMC fluorogenic); assay type: biochemical
# T2 construct: purchased Abcam (Cambridge, MA, USA)
# T2 sequence (Q92769 whole entry): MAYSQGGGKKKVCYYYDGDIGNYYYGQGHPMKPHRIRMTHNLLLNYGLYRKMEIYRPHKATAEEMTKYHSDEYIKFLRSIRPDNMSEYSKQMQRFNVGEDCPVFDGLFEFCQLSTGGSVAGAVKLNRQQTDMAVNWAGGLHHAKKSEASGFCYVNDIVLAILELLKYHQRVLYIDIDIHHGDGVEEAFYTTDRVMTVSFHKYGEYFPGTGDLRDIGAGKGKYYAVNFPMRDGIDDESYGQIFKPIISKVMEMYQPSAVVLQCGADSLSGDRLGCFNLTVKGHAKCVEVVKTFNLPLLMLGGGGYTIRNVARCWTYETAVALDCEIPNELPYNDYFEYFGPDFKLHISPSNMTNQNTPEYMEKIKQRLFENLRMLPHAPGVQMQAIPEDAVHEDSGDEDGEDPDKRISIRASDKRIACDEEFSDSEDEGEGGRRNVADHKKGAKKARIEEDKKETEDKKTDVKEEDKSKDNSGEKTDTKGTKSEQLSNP
# Experimental: as §1
# In vitro HDAC2 inhibition assays were performed as previously stated. Briefly, 50 µL of various concentrations of tested compounds were mixed with 10 µL of HDAC2 enzyme solution. After 5 min of 37 °C incubation, 40 µL of the luorogenic substrate Boc-Lys(acetyl)-AMC was added. The mixture was incubated at 37 °C for 30 min and stopped by adding 100 µL of developer containing trypsin and TSA. Then, fluorescence intensity was determined 20 min later at excitation and emission wavelengths of 390 and 460 nm, respectively, using a microplate reader. The IC50 values were determined by the GraphPad Prism 6 program based on a sigmoidal dose − response equation, and the inhibition rates were calculated using the fluorescence intensity readings of the tested wells in comparison to those of the control wells.
# DU145 cells = test: MTT cell growth assay, DU145; settings: for inhibition at 1 µM: DU-145, read-out: DU145 (% inhibition rate, 1 μM)
# Experimental: (§2) The American Type Culture Collection (ATCC) (Manassas, VA, USA) provided the human cancer cell lines including DU145, RM-1, LAPC4, 22RV1, and PC-3, which was then cultured in Dulbecco’s modified Eagle’s medium (DMEM) with 1% penicillin-streptomycin and 10% foetal bovine serum (FBS) in a humidified environment with 5% CO2 at 37 °C.
# (§3) Based on the experimental method published previously, cell lines were prepared in cell suspension (5 × 10^4 cells/mL) and seeded into a 96-well plate[59].
# DU145 xenograft tumour = test: In vivo anticancer activity, DU145 xenograft; design: species or system BALB/c nude mice; settings: 5, 10 and 20 mg/kg i.p., every four days, six times; dose-dependent
# Experimental: The method of in vivo assay was described previously. We bought healthy female BALB/c nude mice from the animal experiment centre of Yangzhou University. All experiments involving animals were approved by the Animal Ethics Committee of China Pharmaceutical University. Mice were subcutaneously injected on the right flank with DU145 cells (200 µl, 1 × 10^7 cells). When tumour sizes reached 80–100 mm^3, mice were divided into four groups at random. Every four days for a total of six times, each group was injected intraperitoneally with the vehicle, CH-1 (5 mg/kg), CH-1 (10 mg/kg), and CH-1 (20 mg/kg). Tumour volume was measured every four days and calculated by the formula (c × c × d)/2 (c, the smallest diameter; d, the largest diameter).
# PC-3 cells = test: MTT cell growth assay, PC-3; settings: Homo sapiens, PC-3, 72 h, read-out: PC-3 cell proliferation IC50
# Experimental: The American Type Culture Collection (ATCC) (Manassas, VA, USA) provided the human cancer cell lines including DU145, RM-1, LAPC4, 22RV1, and PC-3, which was then cultured in Dulbecco’s modified Eagle’s medium (DMEM) with 1% penicillin-streptomycin and 10% foetal bovine serum (FBS) in a humidified environment with 5% CO2 at 37 °C. […] Hit compounds were purchased from WuXi AppTec.
# as §3
# LAPC4 cells = test: MTT cell growth assay, LAPC4; settings: Homo sapiens, LAPC4, 72 h, read-out: LAPC4 cell proliferation IC50
# Experimental: as §2, §3
# 22RV1 cells = test: MTT cell growth assay, 22RV1; settings: Homo sapiens, 22Rv1, 72 h, read-out: 22RV1 cell proliferation IC50
# Experimental: as §2, §3
# [1] = tested on: multiple prostate-related tumour cells (DU145, RM-1, LAPC4, 22RV1, PC-3); test: MTT cell growth assay, prostate cancer cell panel; settings: Homo sapiens, read-out: anti-proliferative IC50 against prostate-related tumour cells
# Experimental: as §2, §3
# RM-1 cells = test: MTT cell growth assay, RM-1; settings: RM1, 72 h, read-out: RM-1 cell proliferation IC50
# Experimental: as §2, §3
# [2] = 37 °C, 30 min, read-out: HDAC2 (IC50)
IC50 (HDAC2; [2]),IC50 (CARM1),SMILES,inhibition at 1 µM (DU145 cells; Homo sapiens),further results
,,"O=C(CCCCCCC(=O)Nc1ccccc1)NO [vorinostat, reference compound]",,"CARM1 (IC50, nM) (CARM1): no inhibitory effect; also recorded: no inhibition"
9.18 ± 0.17 nM,25.5 ± 1.12 nM,CNCCNCc1cccc(-c2nc(Nc3cccc(OCCCCCCC(=O)NO)c3)c(C)c(-c3cc4cccc(OC)c4[nH]3)n2)c1 [CH-4],92%,
,,"CNC[C@@H](O)COc1ccc(Cl)c(-c2nc(-c3c(C)noc3C)c(C)c(N3CC4(CCN(C(=O)OC)CC4)C3)n2)c1 [EZM2302, reference compound]",< 50%,"HDAC2 (IC50, nM) (HDAC2; 37 °C, 30 min): no inhibition"
8.33 ± 1.05 nM,5.38 ± 0.54 nM,CNCCNCc1cccc(-c2nc(Nc3cccc(OCCCCCCC(=O)NO)c3)c(C)c(-c3c(C)noc3C)n2)c1 [CH-2],93%,
17.3 ± 1.96 nM,30.1 ± 2.02 nM,CNCCNCc1cccc(-c2nc(Nc3cccc(OCCCCCCC(=O)NO)c3)c(C)c(-c3cc4ccccc4s3)n2)c1 [CH-5],85%,
13 ± 1.25 nM,37.4 ± 1.65 nM,CNCCNCc1cccc(-c2nc(Cl)c(C)c(Nc3cccc(OCCCCCCC(=O)NO)c3)n2)c1 [CH-6],86%,
5.83 ± 0.41 nM,10.6 ± 0.93 nM,CNCCNCc1cccc(-c2nc(Nc3cccc(OCCCCCCC(=O)NO)c3)c(C)c(-c3cccnc3)n2)c1 [CH-3],96%,
24.8 ± 1.53 nM,58.5 ± 3.21 nM,CNCCNCc1cccc(-c2nc(Nc3cccc(OCCCCCCC(=O)NO)c3)c(C)c(Oc3ccccc3)n2)c1 [CH-7],81%,

SMILES,IC50 (HDAC2; [2]),IC50 (CARM1),inhibition at 1 µM (DU145 cells; Homo sapiens),further results
CNCCNCc1cccc(-c2nc(Nc3cccc(OCCCCCCC(=O)NO)c3)c(C)c(-c3ccnc4[nH]ccc34)n2)c1 [CH-1],,3.71 ± 0.11 nM,97%,"IC50 (HDAC2): 4.07 ± 0.25 nM; tumour volume / tumour growth versus vehicle (DU145 xenograft tumour): significantly inhibited tumour growth; also recorded: significantly reduced; also recorded: significant antitumour activity; IC50 (PC-3 cells): 430 nM; IC50 (LAPC4 cells): 680 nM; IC50 (22RV1 cells): 950 nM; IC50 (DU145 cells; Homo sapiens, DU-145, 72 h, read-out: DU145 cell proliferation IC50): 90 nM; inhibitory activity on DU145 cells relative to vorinostat (DU145 cells; ratio of IC50 values): five times stronger; IC50 [1]: < 1000 nM; IC50 (RM-1 cells): 710 nM"
